Data on 3 compounds can be found in patent US6800762B2, “Indolin derivaties as sun protection agents” (Ciba Specialty Chemicals Corporation, priority 1998, dated 2004).

Series [1] can be described thus: UV absorption: molar extinction coefficient at λmax. It counts as physicochemical.
Text: ε=62081 in ethanol l/(mol/cm) at λmax=434 nm, elemental analysis for C24H32N2O2[%]:
A further series in a line: photostability. The class given is physicochemical. As to conditions: read-out: photostability t1/2 (converted).

SMILES strings stand for the structures.

Regarding `CN1/C(=C/C(=O)c2ccccc2)C(C)(C)c2ccccc21` [Example 3], the λmax in series [1] (in dioxane) amounted to 377 nm. Further, the ε in series [1] (in dioxane at λmax) is recorded as 29427 l/(mol/cm).

In series [1] (in ethanol), `CCCCC(CC)COC(=O)/C(C#N)=C/C=C1\N(C)c2ccccc2C1(C)C` (stereo not drawn) [Example 2] gave a λmax of 434 nm. The ε in series [1] (in ethanol at λmax) is reported as 62081 l/(mol/cm).

On to `CN1/C(=C\C=O)C(C)(C)c2ccccc21` [Example 1, 2-(1,3,3-trimethyl-indolin-2-ylene) acetaldehyde], for which, in series [1] (in ethanol at λmax), the ε was 34520 l/(mol/cm). Further, the half-life in “photostability” was 208 h.
